Active and inactive are the calls of the source. The rule behind the calls is not given here.

The experiment can be described thus: inhibitors of TNFa-induced E-selectin expression, confirmation, imaging, retest plus dose response, cell count (AID 1288).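 Note: 0% = stimulated vehicle wells and 100% = unstimulated vehicle wells.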 The settings on record: human endothelial cells, TNFa-induced E-selectin, imaging; at 2 µM; stronger effect = higher value.
For `Cn1c(=O)[nH]c(=O)c2c1nc(CN1CCN(Cc3ccccc3)CC1)n2CC(N)=O`, the inhibition was 8.32% (inactive). As for `COc1ccc(OCC2CNC(=O)O2)cc1` (stereo not drawn), the inhibition was 0.97% (inactive). To `CN(c1ccc(C(=O)NCC2CCCO2)cc1)S(C)(=O)=O` (stereo not drawn) belongs 6.07% (inactive); to `CCCCOc1ccc(/C=C/C(=O)OCC(=O)NC(=O)NCC(C)C)cc1OCC`, 15.1% (inactive).

Consider `CC(C)(C)NC(=O)NC(=O)CSc1ncn[nH]1`, for which the inhibition is 6.43% (inactive). In the case of `CCOC(=O)N1CCN(C(=O)COc2cccc3c2CCN(Cc2cccc(C)c2)C3=O)CC1`, the inhibition was 8.76% (inactive).

Consider `CC(C)C(c1nnnn1Cc1ccccc1)N1CCC(C(N)=O)CC1` (stereo not drawn), for which the inhibition was 9.62% (inactive). To `O=S(=O)(N1CCOCC1)N1CCN(c2ccccc2F)CC1` belongs -1.16% (inactive); to `O=C(OCC1CC(c2ccccn2)=NO1)c1ccc(Br)cc1` (stereo not drawn), 9.31% (inactive). To `N/C(=N\S(=O)(=O)c1cccs1)c1ccccc1` belongs 13.7% (inactive); to `O=C(NCN1C(=O)C2C3C=CC(C3)C2C1=O)Nc1nncs1` (stereo not drawn), 1.86% (inactive); to `CCOC(=O)Cc1c(C)nc2c(-c3ccccc3)c[nH]n2c1=O`, 0.71% (inactive). To `CC(=O)c1cccc(NS(=O)(=O)N2CCCCC2)c1` belongs -4.42% (inactive). Consider `COc1cc(S(=O)(=O)N(Cc2ccccn2)Cc2ccco2)ccc1-n1cnnn1`, for which the inhibition was 2% (inactive).

As for `Cc1ccc(CNC(=O)C2CCN(S(=O)(=O)c3c(C)noc3/C=C/c3ccco3)CC2)cc1`, the inhibition is 4.12% (inactive). To `Cc1ccc(-n2c(=O)c3c4c(sc3n(Cc3cc(=O)n5ccccc5n3)c2=O)CCC4)cc1C` belongs 3.95% (inactive). To `COc1ccc(S(=O)(=O)Cc2ccc(C(=O)N3CCOCC3)o2)cc1` belongs 26.4% (inactive); to `Cc1ccc2cc(C#N)c(N3CCCC3)nc2c1C`, 8.05% (inactive). For `O=C(CCn1nnc2ccccc21)Nc1nnc(Cc2ccc(F)cc2)s1`, the inhibition is 5.36% (inactive). For the compound `CCCCOc1ccc(-c2nnn(C(C)C(=O)OCC)n2)cc1` (stereo not drawn), the inhibition is 27.1% (inactive). With `COc1ccc(C(c2nnnn2Cc2ccccc2)N2CCN(c3nc4ccccc4s3)CC2)cc1` (stereo not drawn) the figure was 2.21% (inactive). To `O=c1cc(-c2ccc(F)cc2)oc2ccccc12` belongs 0.15% (inactive); to `COC(=O)CCC(=O)Nc1nc(-c2ccccc2)cs1`, 16.6% (inactive). To `COc1ccc(S(=O)(=O)NCc2csc(-c3cccnc3)n2)cc1` belongs 4.07% (inactive); to `CCOC(=O)C1CCCN(C(=O)COC(=O)c2cc(=O)c3ccccc3o2)C1` (stereo not drawn), 3.09% (inactive).

On to `COc1ccc(C2(CNC(=O)c3cc([N+](=O)[O-])cc([N+](=O)[O-])c3)CCCC2)cc1OC`, for which the inhibition was 4.01% (inactive). With `O=C(NCc1ccccc1)N1CCN(c2ccc(Cl)c(Cl)c2)CC1` the figure was 15.4% (inactive); with `O=C(O)COc1ccc(/C=N/n2cnc3scc(-c4cccs4)c3c2=O)cc1`, 5.08% (inactive).

As to `O=C(C1CCN(S(=O)(=O)c2cnc[nH]2)CC1)N1CCN(c2ncccn2)CC1`, the inhibition is 31.7% (inactive). With `CC(C(=O)O)C1SC(=O)NC1=O` (stereo not drawn) the figure was 12.7% (inactive); with `CCCCCCOC(=O)/C=C/c1c(C)[nH]c(=O)[nH]c1=O`, 30.8% (inactive); with `CCC(Sc1nc2c(c(=O)n1CC)SC(C)C2)C(=O)OC` (stereo not drawn), 6.81% (inactive). With `COc1ccc(C(=O)OCCNC(=O)c2c(Cl)nc3ccccn23)cc1`, the inhibition is 3.04% (inactive).

`Clc1ccc(Nc2nc3cccnc3s2)cc1`: the inhibition is 7.79% (inactive). To `O=C(COc1ccc(-c2nnco2)cc1)NCc1ccccc1Cl` belongs 10.1% (inactive). To `Clc1ccc(-c2nnc(-c3ccco3)o2)cc1` belongs 6.81% (inactive); to `COc1ccc(S(=O)(=O)Nc2cccc(S(=O)(=O)N3CCCCCC3)c2)cc1`, 31% (inactive). To `Cc1ccc2c(c1)C(c1ccc(F)cc1)N(C(=O)c1cc3ccccc3oc1=O)CC(=O)N2` (stereo not drawn) belongs -3.89% (inactive); to `CCn1cc(C(=O)NCc2ccco2)c(=O)c2cc(S(=O)(=O)N3CCc4ccccc4C3)ccc21`, 41.9% (inactive); to `C=CCn1c(SCC(=O)NC)nc2sc3c(c2c1=O)CCC3`, 4.27% (inactive).

Turning to `O=C1CC(c2ccccc2)n2nc(NC(=O)C3CCCO3)nc2N1` (stereo not drawn), the inhibition was -5.55% (inactive). `O=c1c2c(n3nnnc3n1-c1ccccc1)-c1ccccc1CC21CCCC1`: the inhibition was -3.55% (inactive). With `COc1ccc(CNC(=O)c2ccc(NC(=O)CC3SC(N4CCCCC4)=NC3=O)cc2)cc1` (stereo not drawn) the figure was 4.81% (inactive); with `O=C(O)c1cc2nc(-c3ccc(F)cc3)cc(C(F)(F)F)n2n1`, 8.45% (inactive); with `COc1ccc(C(=O)C(CN2CCOCC2)c2ccccc2)cc1F` (stereo not drawn), 0.43% (inactive).

With `CCC(=O)Nc1nnc(-c2ccccn2)o1`, the inhibition was 14.7% (inactive). With `Cc1oc(-c2cccs2)nc1CSCC(=O)N1CCC2(CC1)OCCO2` the figure was 2.86% (inactive); with `CC1=C(C(=O)N2CCC3(CC2)OCCO3)C2(CCC(C)CC2)OC1=O` (stereo not drawn), 6.34% (inactive); with `O=C1CC(c2ccccc2)SC(N(c2ccccc2)c2ccccc2)=N1` (stereo not drawn), 26.1% (inactive).

On to `COC(=O)C1=NN(c2cccc(C)c2)C2C(=O)N(c3ccccc3OC)C(=O)C12` (stereo not drawn), for which the inhibition was 8.46% (inactive).

As to `Cc1nc2c(ccc3nc(NC(=O)c4ccc5c(c4)OCCO5)sc32)s1`, the inhibition was 3.48% (inactive). In the case of `O=[N+]([O-])c1ccc(N2CCNCC2)cc1NCC1CCCO1` (stereo not drawn), the inhibition was -1.91% (inactive). To `CCOc1cc2[nH]c(=O)n(CCCN3CCCC3=O)c(=O)c2cc1OCC` belongs 17% (inactive); to `CCCOc1ccc(NC(=O)C(=O)NCCCn2ccnc2)cc1`, 42.5% (inactive); to `CN1CCC(N(C)C(=S)NC(=O)C23CC4CC(CC(C4)C2)C3)CC1`, 28.5% (inactive). To `O=c1[nH][nH]cc1C=Nc1ccc(Cl)cc1` belongs 46.9% (inactive). To `COc1ccc(NC(=O)N(CCCN2CCOCC2)Cc2cccnc2)c(OC)c1` belongs 3.7% (inactive). Take `Cc1ccc(/C=c2\sc3n(c2=O)CN(c2cccc(Br)c2)CN=3)o1`: the inhibition was 3.58% (inactive). With `Cc1nc2oc(C(=O)c3ccccc3)c(N)c2c2c1COC(C)(C)C2` the figure was 0.22% (inactive). To `Cc1cc(C(=O)N2CCc3ccccc32)c2ccccc2n1` belongs 2.81% (inactive); to `CC(c1ccco1)N(C(=O)C12CC3CC(CC(C3)C1)C2)c1ccccn1` (stereo not drawn), 5.6% (inactive); to `O=C(NCc1nc(-c2ccccc2)no1)c1ccc2c(c1)OCO2`, 24.1% (inactive). To `CCc1cc[n+](CC(=O)Nc2ccc(Cl)cc2Cl)cc1` belongs 5.98% (inactive); to `O=C(CCl)N1N=C(c2ccco2)CC1c1cccs1` (stereo not drawn), 26.9% (inactive). For `COC(=O)c1cc(Br)c(=O)n(Cc2ccncc2)c1`, the inhibition is 6.86% (inactive). With `c1csc(C(c2nnnn2C2CCCC2)N2CCCC3(CCCCC3)C2)c1` (stereo not drawn) the figure was -3.21% (inactive); with `O=S(=O)(NCC(c1ccco1)N1CCN(c2ccccc2)CC1)c1ccc(F)cc1` (stereo not drawn), 6.17% (inactive). With `O=c1[nH]c2cc(NCCO)c([N+](=O)[O-])cc2[nH]1` the figure was 15.2% (inactive).

On to `Cc1ccc2oc(=O)n(CCCOc3ccccc3)c2c1`, for which the inhibition was 26.2% (inactive). For the compound `Cc1cccc(C(=O)NNC(=O)Nc2ccccc2)c1`, the inhibition was -2.06% (inactive).

As for `CC1(C)CC(=O)C2=C(C1)NCN(Cc1ccc3c(c1)OCO3)C2`, the inhibition was 3.18% (inactive). With `COc1cc(C2C(C#N)=C(N)Oc3cc(C)n(CCc4ccccc4)c(=O)c32)cc2c1OCO2` (stereo not drawn) the figure was 4.3% (inactive). With `CCCOC(=O)c1ccc(Cl)c(NC(=O)c2ccc(-c3ccccc3)cc2)c1` the figure was 1.66% (inactive); with `Cn1nnnc1SCC(=O)Nc1cccc([N+](=O)[O-])c1`, 2.78% (inactive). To `C/C(=N\NC(=O)c1cccc(C)c1)c1ccc(N2CCOCC2)cc1` belongs 4.53% (inactive).

As to `CO/C([O-])=N/c1c[n+](-c2ccc(Cl)cc2)no1`, the inhibition was 26.1% (inactive). To `O=C(Oc1nsnc1N1CCOCC1)N1CCOCC1` belongs 2.57% (inactive); to `CCOC(=O)c1ccc(NC(=S)NCC(O)c2ccccc2)cc1` (stereo not drawn), 4.17% (inactive).

For `COC(=O)c1cc2c(s1)CS(=O)C2` (stereo not drawn), the inhibition was 14.6% (inactive). With `CS(=O)(=O)N(CC(=O)NCCC1=CCCCC1)C1CCCCC1` the figure was -0.77% (inactive). With `Cc1sc(NC(=O)c2ccco2)c(CN2CCN(c3ccccn3)CC2)c1C` the figure was 24.4% (inactive). For `COc1ccc(CNC(=O)C(CCSC)NS(=O)(=O)c2ccccc2F)cc1` (stereo not drawn), the inhibition was 5.1% (inactive). With `CC(=O)Nc1ccccc1Sc1ccc2c3c(cccc13)C(=O)N(c1ccc(C)cc1)C2=O` the figure was -0.84% (inactive); with `O=C(CN1CCN(c2ccccc2F)CC1)c1c[nH]c2ccccc12`, -2.26% (inactive). On to `COc1cc(NC(=O)CN2CCC(C)CC2)c(C)cc1[N+](=O)[O-]`, for which the inhibition was 8.41% (inactive). Consider `CCN(CC)c1ccc(NC(=O)C2CC3CCC2C3)cc1` (stereo not drawn), for which the inhibition is 24.7% (inactive). `COc1ccc(OC)c(CN2CCN(C(=O)COc3cccc(C)c3)CC2)c1`: the inhibition is 9.14% (inactive).

Regarding `O=C(CCCN1CCOCC1)c1ccc2c(c1)OCCO2`, the inhibition is 2.27% (inactive).

The values are drawn from PubChem BioAssay AID1288 (Columbia University Molecular Screening Center, 2008).
